Values joined by “and” are separate entries in the source; they are usually repeats but may differ in a detail not shown here. Equal entries are not always repeated. Toxic doses and inconclusive results are not listed.

In this test the test system is CD2F1 mice, L1210 leukemia ip, survival T/C. Briefly: NCI In Vivo Anticancer Drug Screen. Data for tumor model L1210 Leukemia (intraperitoneal) in CD2F1 (CDF1) mice. Conditions: higher = longer survival. In a few lines:
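Antitumor effect is scored in animals hosting a serially transplanted tumor. Values compare compound-dosed animals against vehicle-only controls as a simple quotient.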

Where [1] appears, read: endpoint: mean survival time, dose: 100.0 mg/kg/injection, schedule: Q01DX009 (ip), vehicle: saline with Tween-80.
Setting [2] is: endpoint: mean survival time, dose: 200.0 mg/kg/injection, schedule: Q01DX009 (ip), vehicle: saline with Tween-80.
Setting [3] is: endpoint: mean survival time, dose: 100.0 mg/kg/injection, schedule: Q04DX002 (ip), vehicle: saline with Tween-80.
Where [4] appears, read: endpoint: mean survival time, dose: 200.0 mg/kg/injection, schedule: Q04DX002 (ip), vehicle: saline with Tween-80.
Setting [5] is: endpoint: mean survival time, dose: 400.0 mg/kg/injection, schedule: Q04DX002 (ip), vehicle: saline with Tween-80.
The mark [6] stands for this setting: endpoint: mean survival time, dose: 100.0 mg/kg/injection, schedule: Q04DX003 (ip), vehicle: saline with Tween-80.
[7] abbreviates: endpoint: mean survival time, dose: 200.0 mg/kg/injection, schedule: Q04DX003 (ip), vehicle: saline with Tween-80.
Setting [8] is: endpoint: mean survival time, dose: 400.0 mg/kg/injection, schedule: Q04DX003 (ip), vehicle: saline with Tween-80.
The mark [9] stands for this setting: endpoint: mean survival time, dose: 50.0 mg/kg/injection, schedule: Q04DX003 (ip), vehicle: Klucel (hydroxypropylcellulose) (HPC).
Where [10] appears, read: endpoint: mean survival time, dose: 100.0 mg/kg/injection, schedule: Q04DX003 (ip), vehicle: Klucel (hydroxypropylcellulose) (HPC).
[11] abbreviates: endpoint: mean survival time, dose: 100.0 mg/kg/injection, schedule: Q01DX001 (ip), vehicle: saline with Tween-80.
Where [12] appears, read: endpoint: mean survival time, dose: 200.0 mg/kg/injection, schedule: Q01DX001 (ip), vehicle: saline with Tween-80.
The mark [13] stands for this setting: endpoint: mean survival time, dose: 400.0 mg/kg/injection, schedule: Q01DX001 (ip), vehicle: saline with Tween-80.
The mark [14] stands for this setting: endpoint: mean survival time, dose: 400.0 mg/kg/injection, schedule: Q01DX009 (ip), vehicle: saline with Tween-80.

Turning to `O=P1(Oc2ccccc2)NCC(Br)CO1` (configuration not stated), the T/C is, setting by setting: (endpoint: mean survival time, dose: 18.8 mg/kg/injection, schedule: Q01DX001 (ip), vehicle: other) 98 % of control; (endpoint: mean survival time, dose: 31.25 mg/kg/injection, schedule: Q01DX001 (ip), vehicle: other) 104 % of control; (endpoint: mean survival time, dose: 37.5 mg/kg/injection, schedule: Q01DX001 (ip), vehicle: other) 98 % of control; (endpoint: mean survival time, dose: 62.5 mg/kg/injection, schedule: Q01DX001 (ip), vehicle: other) 107 % of control; (endpoint: mean survival time, dose: 75.0 mg/kg/injection, schedule: Q01DX001 (ip), vehicle: other) 105 % of control; (endpoint: mean survival time, dose: 125.0 mg/kg/injection, schedule: Q01DX001 (ip), vehicle: other) 94 % of control. Further, the T/C reads like this: (endpoint: mean survival time, dose: 150.0 mg/kg/injection, schedule: Q01DX001 (ip), vehicle: other) 113 % of control; (endpoint: mean survival time, dose: 250.0 mg/kg/injection, schedule: Q01DX001 (ip), vehicle: other) 100 % of control; (endpoint: mean survival time, dose: 300.0 mg/kg/injection, schedule: Q01DX001 (ip), vehicle: other) 107 % of control; (endpoint: mean survival time, dose: 500.0 mg/kg/injection, schedule: Q01DX001 (ip), vehicle: other) 100 % of control.

For the molecule `O=[N+]([O-])c1ccc(Cl)c2c([N+](=O)[O-])cccc12`, the T/C is 100 % of control (endpoint: mean survival time, dose: 50.0 mg/kg/injection, schedule: Q01DX009 (ip), vehicle: saline with Tween-80); 93 % of control under setting [1]; 96 % of control under setting [2].

Turning to `[Br][Pt+2][Br].[NH-]C(c1ccccc1)C([NH-])c1ccccc1` (configuration not stated), the T/C is 109 % of control and 119 % of control (endpoint: mean survival time, dose: 12.5 mg/kg/injection, schedule: Q04DX003 (ip), vehicle: saline with Tween-80); 107 % of control and 109 % of control (endpoint: mean survival time, dose: 25.0 mg/kg/injection, schedule: Q04DX003 (ip), vehicle: saline with Tween-80); 109 % of control (endpoint: mean survival time, dose: 50.0 mg/kg/injection, schedule: Q04DX003 (ip), vehicle: saline with Tween-80).

In the case of `C/C=C/C=C/C(=O)c1ccc(OC)cc1O`, the T/C was 86 % of control (endpoint: mean survival time, dose: 50.0 mg/kg/injection, schedule: Q04DX002 (ip), vehicle: saline with Tween-80); 101 % of control under setting [3]; 89 % of control under setting [4]; 89 % of control under setting [5].

In the case of `O=C(Cc1ccccc1)c1ccc(O)cc1`, the T/C by setting is: under setting [6], 100 % of control; under setting [7], 103 % of control; under setting [8], 111 % of control.

In the case of `O=C(CCCN1CCC(O)(c2cccc(C(F)(F)F)c2)CC1)c1ccc(F)cc1`, the T/C is 95 % of control (endpoint: mean survival time, dose: 12.5 mg/kg/injection, schedule: Q04DX003 (ip), vehicle: Klucel (hydroxypropylcellulose) (HPC)); 92 % of control (endpoint: mean survival time, dose: 25.0 mg/kg/injection, schedule: Q04DX003 (ip), vehicle: Klucel (hydroxypropylcellulose) (HPC)); 98 % of control under setting [9]; 97 % of control under setting [10].

Consider `CCOC(=O)c1ccc(-c2ccc(C(=O)OCC)o2)o1`, for which the T/C is 101 % of control (endpoint: mean survival time, dose: 50.0 mg/kg/injection, schedule: Q04DX002 (ip), vehicle: saline); 93 % of control (endpoint: mean survival time, dose: 100.0 mg/kg/injection, schedule: Q04DX002 (ip), vehicle: saline); 97 % of control (endpoint: mean survival time, dose: 200.0 mg/kg/injection, schedule: Q04DX002 (ip), vehicle: saline).

As to `CS(=O)(=O)OC1CS(=O)(=O)Cc2ccccc21` (configuration not stated), the T/C is, setting by setting: (endpoint: mean survival time, dose: 100.0 mg/kg/injection, schedule: Q01DX001 (ip), vehicle: carboxymethylcellulose (CMC)) 101 % of control; (endpoint: mean survival time, dose: 200.0 mg/kg/injection, schedule: Q01DX001 (ip), vehicle: carboxymethylcellulose (CMC)) 101 % of control; (endpoint: mean survival time, dose: 400.0 mg/kg/injection, schedule: Q01DX001 (ip), vehicle: carboxymethylcellulose (CMC)) 101 % of control.

On to `O=C(O)/C=C/C=C/C(=O)O`, for which the T/C under setting [11] is 102 % of control and 101 % of control; the T/C under setting [12] was 104 % of control and 93 % of control; the T/C under setting [13] is 100 % of control and 101 % of control.

With `CCOC(=O)c1c(C)csc1NC(C)=O`, the T/C is 108 % of control under setting [1]; 96 % of control under setting [6]; 97 % of control under setting [2]; 98 % of control under setting [7]; 90 % of control under setting [14]; 93 % of control under setting [8].

On to `OCC1OC(n2cc(I)c3c2ncn2nnnc32)C(O)C1O` (configuration not stated), for which the T/C (endpoint: mean survival time, dose: 1.56 mg/kg/injection, schedule: Q01DX005 (ip), vehicle: water) was 88 % of control; the T/C (endpoint: mean survival time, dose: 3.13 mg/kg/injection, schedule: Q01DX005 (ip), vehicle: water) was 95 % of control; the T/C (endpoint: mean survival time, dose: 6.25 mg/kg/injection, schedule: Q01DX005 (ip), vehicle: water) is 95 % of control; the T/C (endpoint: mean survival time, dose: 12.5 mg/kg/injection, schedule: Q01DX005 (ip), vehicle: water) was 98 % of control; the T/C (endpoint: mean survival time, dose: 25.0 mg/kg/injection, schedule: Q01DX005 (ip), vehicle: water) is 87 % of control and 97 % of control; the T/C (endpoint: mean survival time, dose: 50.0 mg/kg/injection, schedule: Q01DX005 (ip), vehicle: water) was 97 % of control.

As to `CN1CCCN(C)C1c1cc(Br)ccc1O`, the T/C is, setting by setting: (endpoint: mean survival time, dose: 6.25 mg/kg/injection, schedule: Q01DX009 (ip), vehicle: saline sonified) 100 % of control; (endpoint: mean survival time, dose: 12.5 mg/kg/injection, schedule: Q01DX009 (ip), vehicle: saline sonified) 104 % of control; (endpoint: mean survival time, dose: 25.0 mg/kg/injection, schedule: Q01DX009 (ip), vehicle: saline sonified) 94 % of control; under setting [6], 101 % of control; under setting [7], 95 % of control; under setting [8], 95 % of control.

On to `N#CCCCC1(CCCC#N)OCCO1`, for which the T/C is 100 % of control (endpoint: mean survival time, dose: 50.0 mg/kg/injection, schedule: Q04DX003 (ip), vehicle: saline); 102 % of control (endpoint: mean survival time, dose: 100.0 mg/kg/injection, schedule: Q04DX003 (ip), vehicle: saline); 107 % of control (endpoint: mean survival time, dose: 200.0 mg/kg/injection, schedule: Q04DX003 (ip), vehicle: saline).

Regarding `c1cc2nc(c1)CSCCCCCCCCSC2`, the T/C under setting [1] was 88 % of control, the T/C under setting [2] is 91 % of control and the T/C under setting [14] is 95 % of control.

`COC(=O)CC1(C(=O)OC)NC(=O)c2cc(OC)c(Cl)cc2N1` (configuration not stated): the T/C is 88 % of control under setting [11]; 96 % of control under setting [3]; 94 % of control under setting [12]; 96 % of control under setting [4]; 95 % of control under setting [13]; 86 % of control under setting [5].

Take `O=NNc1ccc2cccnc2n1`: the T/C by setting is: (endpoint: median survival time, dose: 12.5 mg/kg/injection, schedule: Q01DX005 (ip), vehicle: water) 153 % of control; (endpoint: median survival time, dose: 25.0 mg/kg/injection, schedule: Q01DX005 (ip), vehicle: water) 162 % of control; (endpoint: median survival time, dose: 50.0 mg/kg/injection, schedule: Q01DX005 (ip), vehicle: water) 164 % of control; (endpoint: median survival time, dose: 60.0 mg/kg/injection, schedule: Q01DX005 (ip), vehicle: water) 223 % of control; (endpoint: median survival time, dose: 100.0 mg/kg/injection, schedule: Q01DX005 (ip), vehicle: water) 175 % of control and 181 % of control; (endpoint: median survival time, dose: 166.66 mg/kg/injection, schedule: Q01DX005 (ip), vehicle: water) 105 % of control.

Regarding `NNC(=O)CNc1cccc(Br)c1`, the T/C is 98 % of control (endpoint: mean survival time, dose: 12.5 mg/kg/injection, schedule: Q01DX009 (ip), vehicle: Klucel (hydroxypropylcellulose) (HPC)); 101 % of control (endpoint: mean survival time, dose: 25.0 mg/kg/injection, schedule: Q01DX009 (ip), vehicle: Klucel (hydroxypropylcellulose) (HPC)); 101 % of control (endpoint: mean survival time, dose: 50.0 mg/kg/injection, schedule: Q01DX009 (ip), vehicle: Klucel (hydroxypropylcellulose) (HPC)); 101 % of control under setting [9]; 102 % of control (endpoint: mean survival time, dose: 100.0 mg/kg/injection, schedule: Q01DX001 (ip), vehicle: Klucel (hydroxypropylcellulose) (HPC)); 97 % of control (endpoint: mean survival time, dose: 100.0 mg/kg/injection, schedule: Q01DX009 (ip), vehicle: Klucel (hydroxypropylcellulose) (HPC)). Further, the T/C is 98 % of control under setting [10]; 98 % of control (endpoint: mean survival time, dose: 200.0 mg/kg/injection, schedule: Q01DX001 (ip), vehicle: Klucel (hydroxypropylcellulose) (HPC)); 111 % of control (endpoint: mean survival time, dose: 200.0 mg/kg/injection, schedule: Q04DX003 (ip), vehicle: Klucel (hydroxypropylcellulose) (HPC)).

Turning to `OC(CCl)Cc1ccccc1` (configuration not stated), the T/C under setting [6] was 95 % of control.
